Test: in vitro
Conditions: human, hela cells, % viability

Going from Cc1ccc(C(=O)Nc2ccccc2C(=O)N2CCN(Cc3ccccc3)CC2)cc1 [CBK263560] to Cc1ccc(C)c(NC(=O)C2CN(S(=O)(=O)c3ccccc3)CCN2S(=O)(=O)c2ccccc2)c1 (stereo not shown) [CBK267349], the viability at 28.5 h, 10 µM falls from 94% to 93.5%.

Going from N#CCCN(C(=O)NCc1c(Cl)cccc1Cl)C1CCCCC1 [CBK156371] to Cn1cc(C2CCCCCN2C(=O)c2ccc(F)cc2)cn1 (stereo not shown) [CBK284913], the viability at 28.5 h, 10 µM falls from 88% to 76.8%.

First: COc1ccccc1Nc1nc(N)nc(CSCCO)n1 [CBK266679]
Second: N#Cc1ccccc1NC(=O)CSc1cnn[nH]1 [CBK269795]
The viability at 28.5 h, 10 µM of the first is higher: 91.4% for the first, 89.3% for the second.

First: COc1cc(/C=C/c2[nH]c(=O)[nH]c(=O)c2[N+](=O)[O-])cc(Br)c1OCC(=O)O [CBK267977]
Second: COc1cc(C(C)=O)ccc1OC(=O)CN1C(=O)c2ccccc2C1=O [CBK262392]
The viability at 28.5 h, 10 µM of the first is lower: 91.5% for the first, 112% for the second.

Going from O=C(Cc1ccc([N+](=O)[O-])cc1)Nc1cc(C(=O)O)cc(C(=O)O)c1 [CBK263345] to Cc1ccc2oc(-c3cc(NC(=S)NC(=O)c4ccc([N+](=O)[O-])cc4)ccc3O)nc2c1 [CBK263923], the viability at 28.5 h, 10 µM falls from 100% to 94.3%.

Compared with COc1ccc(C2(C(=O)NCCc3ccc(O)cc3)CC2)cc1 [CBK149833], CC(C)c1ccc(CNC(=O)C2(c3ccccc3)CCCC2)cc1 [CBK161531] is lower in viability at 28.5 h, 10 µM: 101% for the first, 96.8% for the second.

Compared with Cc1csc(Sc2nccnc2NC(C)C)n1 [CBK115203], Cc1nonc1-c1csc(CC(C)n2cc(Cl)cn2)n1 (stereo not shown) [CBK304704] is higher in viability at 28.5 h, 10 µM: 88.8% for the first, 92.2% for the second.

Compared with Cc1cc(C(=O)N2CCC3(CCN(Cc4ccccc4)C3)C2)n[nH]1 (stereo not shown) [CBK137092T], O=C(NCCN1CCOCC1)C1(c2ccccc2)CCCC1 [CBK149538] is higher in viability at 28.5 h, 10 µM: 93.4% for the first, 95.2% for the second.

Going from Cc1cc(NC(=O)CSc2ccc3nnc(-c4ccccc4)n3n2)no1 [CBK287518] to Cc1occc1-c1nnc(SCC(=O)Nc2c(C)n(C)n(-c3ccccc3)c2=O)o1 [CBK269042], the viability at 28.5 h, 10 µM falls from 94.8% to 90.9%.

Compared with O=C1COc2ccccc2CCCCC2(CCCN(CC(=O)N3CCCC3)C2)CN1 (stereo not shown) [CBK292009], CC(=O)N1CCc2c([nH]c3ccc(Br)cc23)C12CCN(CCCC#N)CC2 [CBK039724] is lower in viability at 28.5 h, 10 µM: 105% for the first, 83.2% for the second.

Going from Cc1c(C(=O)N2CCC[C@@H]2CO)nnn1Cc1ccc(F)cc1F [CBK304071] to CN(C)CCN(Cc1ccncc1)Cc1ccc(F)cc1F [CBK283094], the viability at 28.5 h, 10 µM rises from 89.2% to 98.2%.

Going from O=C(O)CCCc1ccc2sc3ccccc3c2c1 [CBK010971] to Cn1cc(CCCC(=O)NCCC2=CCCCC2)c2ccccc21 [CBK061756], the viability at 28.5 h, 10 µM rises from 84.8% to 99.2%.

First: COC1C(O)=CC(=O)OC1(CCc1ccco1)CCc1ccco1 (stereo not shown) [CBK001858]
Second: N#Cc1cn(Cc2ccco2)c(=O)[nH]c1=O [CBK010407]
The viability at 28.5 h, 10 µM of the first is lower: 86.7% for the first, 101% for the second.

First: Cc1nc(-c2ccc(NCC(O)c3ccco3)nc2)[nH]c(=O)c1C (stereo not shown) [CBK305254]
Second: Cc1ccc(-c2nc(C)c(C(=O)NCc3ccnc(-n4ccnc4)c3)s2)o1 [CBK298322]
The viability at 28.5 h, 10 µM of the first is lower: 94.6% for the first, 105% for the second.

Compared with CN1CCN(Cc2nc3c(c(=O)n(C)c(=O)n3C)n2Cc2ccc(Br)cc2)CC1 [CBK269310], CC(=O)N1CCCc2cc(C(O)CN3CCN(c4cccc(C)c4)CC3)ccc21 (stereo not shown) [CBK286457] is higher in viability at 28.5 h, 10 µM: 87.9% for the first, 93.1% for the second.

First: c1ccc2sc(-c3cc(Nc4ccc5[nH]ccc5c4)ncn3)cc2c1 [CBK090858]
Second: Cc1cc(Cl)ccc1OCC(=O)NC(=S)Nc1cccc(-c2nc3ccccc3s2)c1 [CBK264802]
The viability at 28.5 h, 10 µM of the first is lower: 82.5% for the first, 105% for the second.

Going from Nc1ncc(-c2ccc(C(=O)N3CCOCC3)cc2)nc1-c1ccsc1 [CBK200422] to Cn1cc(C(=O)NC2CCN(C(=O)c3ccc(C#N)cc3)CC2)cn1 [CBK305683], the viability at 28.5 h, 10 µM falls from 110% to 94.4%.

Compared with Cn1c(C2CC2)nc2c1CCN(Cc1cn3cc(Cl)ccc3n1)C2 [CBK305314], CC(C)c1ccc(COc2nccnc2OC2CCN(CCCC#N)CC2)cc1 [CBK161576] is higher in viability at 28.5 h, 10 µM: 92.8% for the first, 96.5% for the second.

Going from COc1ccc(Nc2nc(-c3ccc(Cl)cc3)cn3ccnc23)cn1 [CBK066254] to O=C(O)c1ccc(Nc2ncnc3c2oc2ccccc23)cc1 [CBK269825C], the viability at 28.5 h, 10 µM falls from 113% to 92%.

First: COc1ccc2c(c1)C1(CC(=O)N(CC(=O)N(C)OC)C1=O)C(=O)N2CCCCOc1ccccc1 (stereo not shown) [CBK076032]
Second: COc1ccc2oc(-c3ccccc3)c(C(=O)Nc3nccs3)c2c1 [CBK287767]
The viability at 28.5 h, 10 µM of the first is higher: 92.6% for the first, 71.8% for the second.

Going from Nc1nonc1-n1nnc(C(=O)O)c1-c1cccs1 [CBK266674] to COc1cccc(N2C(=O)N[C@@H]3CCN(C(=O)c4cccs4)[C@@H]3C2=O)c1 [CBK289279], the viability at 28.5 h, 10 µM falls from 99.4% to 82.3%.

Going from O=C(O)C1CCCN(C(=O)Cn2ccc3ccc(OCc4ccccc4)cc32)C1 (stereo not shown) [CBK286814] to O=C(O)c1ccccc1NC(=O)N1CCc2[nH]cnc2C1c1cccc(F)c1 (stereo not shown) [CBK286824], the viability at 28.5 h, 10 µM rises from 89.6% to 93.7%.

Going from CCOC1=NCCN2CCc3cccc1c32 [CBK023113] to CCN(CC)C(=O)CN1CCN(c2nccnc2OCc2cccnc2)CC1 [CBK083140], the viability at 28.5 h, 10 µM falls from 117% to 100%.

Going from Cc1cc(Cl)ccc1OCCCC(=O)Nc1sc2c(c1C(N)=O)CCCCCC2 [CBK265390] to COc1ccc(-n2c(SCc3nc4ccccc4[nH]3)nc3sc4c(c3c2=O)CCCC4)cc1 [CBK267558], the viability at 28.5 h, 10 µM rises from 94.8% to 100%.

Compared with Clc1ncccc1OCCOc1ccccc1 [CBK003888], O=C(CSc1nc2ccccc2c2nc3ccccc3n12)Nc1cccc(Cl)c1 [CBK267872] is higher in viability at 28.5 h, 10 µM: 87.2% for the first, 94.2% for the second.

First: O=[N+]([O-])c1ccccc1NC1OCC(O)C(O)C1O (stereo not shown) [CBK262032]
Second: O=C(c1cc[nH]c1)N1CCN(C(=O)c2ccco2)CC1 [CBK144467]
The viability at 28.5 h, 10 µM of the first is higher: 90.3% for the first, 90% for the second.

First: CCc1ccc(CNC(=O)Cn2nnc(-c3ccc(CNCC4CC4)cc3)n2)cc1 [CBK161032C]
Second: Cc1ccc(CSc2nnc(-c3ccc(NC(=O)/C=C/c4ccccc4)cc3)n2C)cc1 [CBK263850]
The viability at 28.5 h, 10 µM of the first is higher: 109% for the first, 90.4% for the second.

Compared with Cn1cncc1CN1CCNC(=O)C1c1ccccc1C(F)(F)F (stereo not shown) [CBK305495], O=C1CN(S(=O)(=O)c2ccc(F)cc2Cl)CCN1 [CBK051081] is higher in viability at 28.5 h, 10 µM: 98% for the first, 109% for the second.

First: Cc1nc(NC(=O)Cc2c(C)nn(CC(C)C)c2C)sc1-c1n[nH]c(=S)n1C [CBK296691]
Second: C=C(C)Cn1c(SCC(C)C)nnc1-c1cnccc1C [CBK200075T]
The viability at 28.5 h, 10 µM of the first is lower: 88.6% for the first, 96% for the second.

Going from COCCCNC(NC(=O)c1ccc(C)cc1)C(Cl)(Cl)Cl (stereo not shown) [CBK263087] to Cc1cc(NN(Cc2ccccc2)Cc2ccccc2)n2c(nc3ccccc32)c1C#N [CBK262666], the viability at 28.5 h, 10 µM falls from 107% to 96.9%.

Going from C=CCO[C@@H]1C[C@H]2C(=O)N3CCN(C(=O)NC4CCCCC4)C[C@H]3C(=O)N2C1 [CBK289619] to Cc1occc1-c1nn(CCN2CCCCC2)c(=O)o1 [CBK283815], the viability at 28.5 h, 10 µM rises from 82.5% to 96.8%.

Same assay, conditions: human, hela cells, % viability, bulk resorufin, single well

First: CCOC(=O)C1(c2ccccc2)CCN(C(=O)Cc2c[nH]cn2)CC1 [CBK132205]
Second: COc1ccc(CC(=O)Nc2cccc(-c3ccc4c(c3)COC3(CCNCC3)O4)c2)cc1F [CBK115913]
The viability at 28.5 h, 10 µM of the first is higher: 94.3% for the first, 86.5% for the second.

From publication PMC12040169 (PLOS Biology, 2025)
